Measurements reported in BigSolDB 2.1.

N[C@@H](Cc1ccc([N+](=O)[O-])cc1[N+](=O)[O-])C(=O)O
solubility (mole fraction)
Conditions | in 1,2-dichloroethane | in acetone | in ethanol | in ethyl acetate | in isopropanol | in methanol | in n-butanol | in n-propanol | in sec-butanol | in water
273.15 K | 2.2e-09 | 1.58e-06 | 3.44e-05 | – | 1.51e-06 | 1.5e-05 | 3.84e-06 | 2.58e-06 | 6.49e-07 | 8.5e-08
278.15 K | – | 1.64e-06 | – | – | 2.96e-06 | 4.12e-05 | – | – | – | –
283.15 K | 8.6e-09 | 1.72e-06 | 9.2e-05 | – | 5.45e-06 | 9.1e-05 | 3.91e-06 | 3.54e-06 | 6.79e-07 | 1.12e-06
288.15 K | – | 1.91e-06 | – | – | 9.49e-06 | 0.000192 | – | – | – | –
293.15 K | 3.08e-08 | 2.15e-06 | 0.000195 | – | 1.56e-05 | 0.000365 | 3.99e-06 | 5.64e-06 | 6.92e-07 | 9.26e-06
298.15 K | – | 2.56e-06 | – | – | 2.42e-05 | 0.000578 | – | – | – | –
303.15 K | 1.05e-07 | 3.06e-06 | 0.00035 | 9.1e-09 | 3.57e-05 | 0.000909 | 4.28e-06 | 1.01e-05 | 7.79e-07 | 5.12e-05
308.15 K | – | 3.99e-06 | – | – | 5.03e-05 | 0.00123 | – | – | – | –
313.15 K | 3.27e-07 | 5.26e-06 | 0.00051 | 1.88e-07 | 6.78e-05 | 0.00155 | 5.01e-06 | 2.04e-05 | 9.45e-07 | 0.000189
318.15 K | – | 7.14e-06 | – | – | 8.75e-05 | 0.00181 | – | – | – | –
323.15 K | 9.77e-07 | 1.01e-05 | 0.000671 | 1.88e-06 | 0.000109 | 0.00196 | 6.29e-06 | 4.55e-05 | 1.23e-06 | 0.000523
328.15 K | – | 1.45e-05 | – | – | 0.00013 | 0.00197 | – | – | – | –
333.15 K | 2.69e-06 | 2.19e-05 | 0.000772 | 1.12e-05 | 0.00015 | 0.00198 | 8.34e-06 | 0.000113 | 1.71e-06 | 0.00107
338.15 K | – | – | – | – | 0.000167 | – | – | – | – | –
343.15 K | – | – | 0.00079 | 3.58e-05 | – | – | 1.15e-05 | 0.000294 | 2.49e-06 | 0.00166
348.15 K | – | – | – | 5.44e-05 | – | – | – | – | – | –
353.15 K | – | – | 0.000791 | – | – | – | 1.69e-05 | 0.000812 | 3.87e-06 | 0.00193
363.15 K | – | – | – | – | – | – | 2.6e-05 | 0.00241 | 6.11e-06 | 0.00198
368.15 K | – | – | – | – | – | – | – | 0.00424 | – | 0.00201
